Patent US12642885B2, “Hemostatic and wound healing turmeric-polymer composite materials” (priority 2021, dated 2026)

Assays:
blood clotting [1] = test: Effect of curcumin alone on blood clotting
Source text: Turmeric powder is the dried powdered rhizomes of Curcuma longa of the ginger family. Turmeric powder comprises 60-70% carbohydrates, 6-13% water, 6-8% protein, 5-10% fat, 3-7% dietary minerals, 3-7% essential oils such as turmerone and germacrone, 2-7% dietary fiber, and 1-6% curcuminoids. (including curcumin). […] The turmeric powder may be passed through a 100 mesh (149 micron) sieve such that the resulting particles are smaller than 149 microns in diameter. Generally, turmeric powder is present in the suspension at a concentration between 0.1 g per mL and 2 g per ml. In one embodiment, the concentration is between 0.1 g per mL and 1 g per mL. In yet another embodiment, the concentration is between 0.1 g per mL and 0.5 g per mL.

most cancer cell lines = conditions: cited from earlier work
blood clotting [2] = conditions: Kim et al., BMB Rep. 2012; cited from earlier work

## COc1cc(/C=C/C(=O)CC(=O)/C=C/c2ccc(O)c(OC)c2)ccc1O [curcumin]
Blood clotting [1]
  promotion of blood clotting: not found to promote blood clotting
Most cancer cell lines
  anti-cancer activity: moderate
Most cancer cell lines; most cancer cell lines, peer reviewed literature
  IC50: 20 µM
Blood clotting [2]
  anticoagulant activity: well-known anticoagulant
